# Measured values reported in ChEMBL document CHEMBL5050844 (2019).
# Experiments:
# [1] = Induction of anti-CD3/CD28 antibodies-stimulated human T cell activation at 0.3 uM assessed fold increase in CD25 expression measured by ELISA assay; assay type: functional, T cell line
# [2] = Induction of anti-CD3 antibodies-stimulated human T cell activation at 1 uM assessed fold increase in CD25 expression measured by ELISA assay; assay type: functional, T cell line; also: reference of the scale not given here
# [3] = Induction of anti-CD3 antibodies-stimulated human CD4+ T cell activation in immunocompetent mouse assessed fold increase in CD25 expression at 135 mg/kg, po administered twice a day; assay type: functional; also: reference of the scale not given here
# [4] = molecular target: T1, E3 ubiquitin-protein ligase CBL-B (Homo sapiens, UniProt Q13191); assay: Inhibition of N-terminal Avi-tagged human CBL-B (36 to 427 residues) incubated with 60 nM Src kinase for 1.5 hrs followed by incubation with fluorescently labeled UbcH5B-Ub for 1 hr and measured by TR-FRET assay; assay type: single protein
# [5] = Induction of anti-CD3/CD28 antibodies-stimulated human T cell activation at 1 uM assessed fold increase in CD25 expression measured by ELISA assay; assay type: functional, T cell line
# [6] = Induction of anti-CD3 antibodies-stimulated human T cell activation at 1 uM assessed fold increase in IL-2 secretion measured by ELISA assay; assay type: functional, T cell line; also: reference of the scale not given here
# [7] = Induction of anti-CD3/CD28 antibodies-stimulated human T cell activation at 0.3 uM assessed fold increase in IL-2 secretion measured by ELISA assay; assay type: functional, T cell line
# [8] = Induction of anti-CD3/CD28 antibodies-stimulated human T cell activation at 1 uM assessed fold increase in IL-2 secretion measured by ELISA assay; assay type: functional, T cell line
# [9] = Induction of anti-CD3 antibodies-stimulated human CD8+ T cell activation in immunocompetent mouse assessed fold increase in CD25 expression at 90 mg/kg, po administered twice a day; assay type: functional; also: reference of the scale not given here
# [10] = molecular target: T1, E3 ubiquitin-protein ligase CBL-B; assay: Binding affinity towards N-terminal biotinylated Avi-tagged human CBL-B (36 to 427 residues) measured by surface plasmon resonance assay
# [11] = molecular target: T1, E3 ubiquitin-protein ligase CBL-B; assay: Inhibition of N-terminal Avi-tagged human CBL-B (36 to 427 residues) incubated with 30 nM Src kinase for 1.5 hrs followed by incubation with fluorescently labeled UbcH5B-Ub for 1 hr and measured by TR-FRET assay
# [12] = Induction of anti-CD3/CD28 antibodies-stimulated human T cell activation at 4 uM assessed fold increase in IL-2 secretion measured by ELISA assay; assay type: functional, T cell line
# [13] = Induction of anti-CD3 antibodies-stimulated human T cell activation at 8 uM assessed fold increase in CD25 expression measured by ELISA assay; assay type: functional, T cell line; also: reference of the scale not given here
# [14] = Induction of anti-CD3/CD28 antibodies-stimulated human T cell activation at 4 uM assessed fold increase in CD25 expression measured by ELISA assay; assay type: functional, T cell line
# [15] = Induction of anti-CD3 antibodies-stimulated human T cell activation at 8 uM assessed fold increase in IL-2 secretion measured by ELISA assay; assay type: functional, T cell line; also: reference of the scale not given here
# T1 sequence (Q13191 whole entry, the tested form may be a part): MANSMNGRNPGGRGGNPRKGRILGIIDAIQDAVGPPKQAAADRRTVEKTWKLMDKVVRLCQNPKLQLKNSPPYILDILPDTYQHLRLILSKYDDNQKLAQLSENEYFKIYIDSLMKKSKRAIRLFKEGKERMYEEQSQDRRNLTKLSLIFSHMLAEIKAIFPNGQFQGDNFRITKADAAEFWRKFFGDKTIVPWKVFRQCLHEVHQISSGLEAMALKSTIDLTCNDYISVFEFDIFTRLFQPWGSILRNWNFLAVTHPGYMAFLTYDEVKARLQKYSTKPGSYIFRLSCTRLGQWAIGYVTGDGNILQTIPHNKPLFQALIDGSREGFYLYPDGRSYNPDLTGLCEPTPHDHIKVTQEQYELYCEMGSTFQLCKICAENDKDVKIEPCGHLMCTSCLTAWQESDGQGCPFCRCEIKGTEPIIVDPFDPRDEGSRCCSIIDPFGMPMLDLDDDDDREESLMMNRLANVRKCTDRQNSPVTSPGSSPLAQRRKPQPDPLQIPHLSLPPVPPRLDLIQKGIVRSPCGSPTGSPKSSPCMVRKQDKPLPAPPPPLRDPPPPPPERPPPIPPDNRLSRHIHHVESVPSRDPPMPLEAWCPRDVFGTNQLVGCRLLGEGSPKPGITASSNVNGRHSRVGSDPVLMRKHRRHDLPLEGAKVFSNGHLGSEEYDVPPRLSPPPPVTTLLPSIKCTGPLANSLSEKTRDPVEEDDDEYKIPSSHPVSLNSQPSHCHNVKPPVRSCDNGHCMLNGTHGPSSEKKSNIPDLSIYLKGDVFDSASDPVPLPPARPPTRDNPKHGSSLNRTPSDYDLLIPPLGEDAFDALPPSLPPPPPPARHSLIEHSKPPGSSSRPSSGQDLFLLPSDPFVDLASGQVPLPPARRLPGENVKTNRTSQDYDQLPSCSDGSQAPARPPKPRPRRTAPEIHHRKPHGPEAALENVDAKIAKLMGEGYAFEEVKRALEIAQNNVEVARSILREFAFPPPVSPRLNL
SMILES,IC50 [4],Kd [10],IC50 [11],fold change (FC) [1],fold change (FC) [2],fold change (FC) [3],fold change (FC) [5],fold change (FC) [6],fold change (FC) [7],fold change (FC) [8],fold change (FC) [9],fold change (FC) [12],fold change (FC) [13],fold change (FC) [14],fold change (FC) [15]
C[C@@H](c1cc2c(c(C(F)(F)F)c1)CN(c1cccc(C3(Cc4nncn4C)COC3)c1)C2=O)N1CC2CC2C1 (stereo not given in full),< 100 nM,–,–,1.31,>=1.001,1,1.31,>=0.201,>=7.5,>=7.5,1,–,–,–,–
C[C@@H](c1cc2c(c(C(F)(F)F)c1)CN(c1cccc(C3(Cc4nncn4C)COC3)c1)C2=O)N1CCC(C)(F)CC1,< 100 nM,< 100 nM,–,>=1.76,>=1.001,1,>=1.76,>=0.201,>=7.5,>=7.5,1,–,–,–,–
Cn1cnnc1[C@@H](F)C1(c2cccc(N3Cc4c(cc(CN5CCC(F)CC5)cc4C(F)(F)F)C3=O)c2)COC1,< 100 nM,< 100 nM,–,1.51,>=1.001,2.01,1.51,>=0.201,5,>=7.5,1,–,–,–,–
Cn1cnnc1CC1(c2cccc(N3Cc4c(cc(CN5CCC[C@H](F)C5)cc4C(F)(F)F)C3=O)c2)COC1,< 100 nM,–,–,1.31,>=1.001,1,1.31,>=0.201,>=7.5,>=7.5,1,–,–,–,–
Cn1cnnc1CC1(c2cccc(N3Cc4c(cc(CN5C[C@H]6C[C@H]6C5)cc4C(F)(F)F)C3=O)c2)COC1,< 100 nM,–,–,1.31,>=1.001,1,1.31,>=0.201,>=7.5,>=7.5,1,>=7.5,>=1.001,1.51,>=0.201

# Second part, led by results:
IC50 [4],Kd [10],IC50 [11],SMILES,fold change (FC) [1],fold change (FC) [2],fold change (FC) [3],fold change (FC) [5],fold change (FC) [6],fold change (FC) [7],fold change (FC) [8],fold change (FC) [9],fold change (FC) [12],fold change (FC) [13],fold change (FC) [14],fold change (FC) [15]
–,–,> 10000 nM,CC(Sc1nncn1C)c1cccc(NC(=O)c2cc3ccccc3c(=O)[nH]2)c1 (stereo not given),–,–,–,–,–,–,–,–,–,–,–,–
–,–,> 10000 nM,Cc1ccc2ccc(C(=O)Nc3cccc(C(C)Sc4nncn4C)c3)nc2n1 (stereo not given),–,–,–,–,–,–,–,–,–,–,–,–
–,–,> 10000 nM,CC(Sc1nncn1C)c1cccc(NC(=O)c2ccc3cccnc3c2)c1 (stereo not given),–,–,–,–,–,–,–,–,–,–,–,–
–,–,> 10000 nM,CC(Sc1nncn1C)c1cccc(NC(=O)c2ccncn2)c1 (stereo not given),–,–,–,–,–,–,–,–,–,–,–,–
